# According to ChEMBL document CHEMBL1201862, “PubChem BioAssay data set” (2004):
# The source made the active and inactive calls.
# Key:
# Cytochrome P450 2C9 = Cytochrome P450 2C9 (Homo sapiens, UniProt P11712)
# [1] = ZM109 Env clade C HIV-1 fusion inhibitors, dose response, HeLa effector, CEM target cells, luciferase, cherry-pick (AID 652058); format: functional, cell-based
# [2] = inhibitors of HIV Env-driven cell fusion, dose response, cherry-pick (AID 652057); format: functional, cell-based
# [3] = inhibitors of clade B AD8 Env fusion, dose response, cell-based, cherry-pick (AID 652062); format: functional;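 also: luciferase signal from cell-cell fusion driven by HIV-1 clade B AD8 Env; potency is for inhibitors of fusion seen as a drop in luminescence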
# [4] = Luminescence Cell-Based Dose Response HTS to Identify Activators of Luciferase Translation or Activity in H4 […] Cells. [Related pubchem assays: 1829 (Project Summary), 1814 (Primary HTS)]; format: functional
# H4 = experiment: Luminescence Cell-Based Dose Response HTS to Identify Activators of 5'UTR Stem-Loop Driven Prion Protein mRNA Translation in H4 Neuroglioblastoma Cells. [Related pubchem assays: 1829 (Project Summary), 1814 (Primary HTS)]; format: functional; details: Homo sapiens
# [5] = Luminescence Cell-Based Dose Confirmation HTS to Identify Activators of 5'UTR Stem-Loop Driven Alpha-Synuclein mRNA Translation in H4 Neuroglioblastoma Cells. [Related pubchem assays: 1829 (Project Summary), 1814 (Primary HTS)]; format: functional
# [6] = HEK293 cell cytotoxicity, dose response, cytotoxicity control, plate reader, cherry-picked samples (AID 743446); format: functional, cell-based
# [7] = HepG2 cell cytotoxicity, dose response, cytotoxicity control, plate reader, cherry-pick, antagonist series (AID 743416); format: functional, cell-based
# [8] = LGR2 antagonists, dose response, cell-based, HEK293, CRE-luciferase reporter, cherry pick, set 2 (AID 743343); format: functional;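 also: transfected cells were stimulated with diluted bursicon conditioned medium after compound addition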
# [9] = A549 cell cytotoxicity, dose response, cytotoxicity control, plate reader, cherry-pick, antagonist series (AID 743412); format: functional, cell-based
# [10] = MC4R antagonists, dose response, counter-screen for LGR2 antagonist project, cell-based, plate reader, cherry pick (AID 743444); format: functional;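 also: transfected HEK 293 cells stimulated with alpha-MSH peptide; potency of inhibitors of the alpha-MSH evoked signal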
# BJ [11] = experiment: cytotoxicity toward BJ-TERT fibroblasts, dose response, cell-based, RAS-independent, luminescence (AID 1933); format: functional; details: Homo sapiens
# BJ [12] = experiment: cells; format: functional, cell-based; details: Homo sapiens
# BJ [13] = experiment: cytotoxicity toward BJ-TERT-LT-ST fibroblasts, dose response, cell-based, RAS-independent, luminescence (AID 1935); format: functional; details: Homo sapiens;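 also: BJ fibroblasts immortalized with TERT plus LT and ST oncogenes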
# [14] = cytotoxicity toward DRD oncogenic fibroblasts, dose response, cell-based, non-viral oncogenic, luminescence (AID 1934); format: functional; details: Homo sapiens
# Cytochrome P450 3A4 [15] = biological target: T1, Cytochrome P450 3A4 (Homo sapiens, UniProt P08684); details: Potency
# Cytochrome P450 3A4 [16] = biological target: T1, Cytochrome P450 3A4
# Cytochrome P450 2C19 = Cytochrome P450 2C19 (Homo sapiens, UniProt P33261); experiment: Cytochrome panel assay with activity outcomes. Panel member name: p450-cyp2c19 Compounds with AC50 equal or less than 10 uM are considered active; format: functional; details: read-out: AC50
# [17] = P. falciparum Dd2 growth inhibitors, dose response, SYBR Green, dry powder samples (AID 1159566); format: functional, cell-based;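 also: potency for growth inhibition with lower SYBR green DNA signal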
# [18] = P. falciparum Dd2 growth inhibitors, dose response, SYBR Green, cherry-picked samples (AID 1159567); format: functional, cell-based
# [19] = P. falciparum 3D7-ScDHODH growth inhibitors, dose response, SYBR Green, dry powder samples (AID 1159570); format: functional, cell-based;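 also: parasite growth measured after 72 hours of compound exposure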
# [20] = P. falciparum ATP4 D1247Y mutant growth inhibitors, dose response, NITD609-resistant line, SYBR Green, dry powder (AID 1159571); format: functional, cell-based;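 also: parasites synchronized at ring stage by sorbitol before testing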
# [21] = intracellular Trypanosoma cruzi inhibitors in host cells – cell-based, plate reader, cherry-pick samples, set 3, dose response (AID 651818); format: functional;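 also: compounds incubated with infected cells for about four days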
# T1 sequence (P08684 whole entry): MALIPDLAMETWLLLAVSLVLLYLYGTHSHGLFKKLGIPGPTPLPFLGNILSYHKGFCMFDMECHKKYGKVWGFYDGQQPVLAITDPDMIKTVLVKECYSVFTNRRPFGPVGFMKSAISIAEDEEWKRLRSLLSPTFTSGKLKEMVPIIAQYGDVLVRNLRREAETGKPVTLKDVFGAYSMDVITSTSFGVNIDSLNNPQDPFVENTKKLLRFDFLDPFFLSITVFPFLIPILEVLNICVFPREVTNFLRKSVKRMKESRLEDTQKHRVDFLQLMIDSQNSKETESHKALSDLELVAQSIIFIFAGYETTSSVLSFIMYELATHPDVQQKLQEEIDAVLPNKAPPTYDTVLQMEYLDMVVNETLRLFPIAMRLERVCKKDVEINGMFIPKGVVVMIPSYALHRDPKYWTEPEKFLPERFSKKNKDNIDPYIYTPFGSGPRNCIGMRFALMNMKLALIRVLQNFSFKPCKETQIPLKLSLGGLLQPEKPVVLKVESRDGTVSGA
# Chain of Cytochrome P450 2C9 (P11712 whole entry, the tested form may be a part): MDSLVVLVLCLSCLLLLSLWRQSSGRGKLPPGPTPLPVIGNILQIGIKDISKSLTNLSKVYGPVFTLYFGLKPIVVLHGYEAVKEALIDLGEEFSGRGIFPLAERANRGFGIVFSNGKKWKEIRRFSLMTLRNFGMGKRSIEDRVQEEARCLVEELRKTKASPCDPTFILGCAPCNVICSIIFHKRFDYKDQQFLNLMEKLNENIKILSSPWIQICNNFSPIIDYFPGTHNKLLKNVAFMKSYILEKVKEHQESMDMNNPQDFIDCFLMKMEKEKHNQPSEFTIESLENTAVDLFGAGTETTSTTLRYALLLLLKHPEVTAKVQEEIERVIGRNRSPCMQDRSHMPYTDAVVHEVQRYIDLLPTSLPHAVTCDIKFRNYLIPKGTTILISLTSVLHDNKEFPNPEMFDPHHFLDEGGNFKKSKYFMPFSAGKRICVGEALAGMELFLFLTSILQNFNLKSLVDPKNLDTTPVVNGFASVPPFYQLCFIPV
# Chain of Cytochrome P450 2C19 (P33261 whole entry): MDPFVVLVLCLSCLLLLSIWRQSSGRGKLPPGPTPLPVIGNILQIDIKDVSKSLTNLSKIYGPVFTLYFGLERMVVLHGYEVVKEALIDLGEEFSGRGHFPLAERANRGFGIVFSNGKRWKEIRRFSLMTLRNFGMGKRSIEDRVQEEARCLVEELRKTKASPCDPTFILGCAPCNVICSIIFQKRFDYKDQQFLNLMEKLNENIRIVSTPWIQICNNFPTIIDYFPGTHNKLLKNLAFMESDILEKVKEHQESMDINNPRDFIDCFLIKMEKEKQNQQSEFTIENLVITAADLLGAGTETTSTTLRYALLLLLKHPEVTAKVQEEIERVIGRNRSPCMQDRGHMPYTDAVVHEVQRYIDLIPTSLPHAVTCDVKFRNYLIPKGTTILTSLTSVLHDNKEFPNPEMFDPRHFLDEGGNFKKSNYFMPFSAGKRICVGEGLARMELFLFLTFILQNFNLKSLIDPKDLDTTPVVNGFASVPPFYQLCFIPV
compound,measurement,setting,value
COc1cccc(Cn2c(=O)c(-c3cc(F)cc(F)c3)nc3cnc(N4CCOCC4)nc32)c1,AC50,Cytochrome P450 2C9,inconclusive
COc1ccc(NC(=O)Nc2ccc3c(c2)C(=O)N([C@@H](C)CO)C[C@H](C)[C@H](CN(C)S(=O)(=O)c2ccc(OC)cc2)O3)cc1,AC50,[1],4.38 µM (active)
same,AC50,[2],4.26 µM (active)
same,AC50,[3],17.5 µM (active)
O=C(c1ccc2c(c1)ncn2C1CCCCC1)N1CCC2(CC1)OCCO2,EC50,[4],6.5 µM (active)
same,EC50,H4,> 120 µM (not active)
same,EC50,[5],> 120 µM (not active)
OC(c1ccccc1)(c1ccccc1)C1CCN(CCCOc2cccc(C(F)(F)F)c2)CC1,AC50,[6],16.9 µM (active)
same,AC50,[7],10.9 µM (active)
same,AC50,[8],21.7 µM (active)
same,AC50,[9],9.53 µM (active)
same,AC50,[10],19.6 µM (active)
CCNc1ncc2nc(-c3ccc(OC)cc3)c(=O)n(Cc3ccc(F)cc3)c2n1,AC50,Cytochrome P450 2C9,inconclusive
Cc1ccc(Nc2nc(-c3cccnc3)nc3ccccc23)cc1,EC50,BJ [11],28.5 µM (active)
same,EC50,BJ [12],20.3 µM (active)
same,EC50,BJ [13],> 150 µM (inconclusive)
same,EC50,[14],15.8 µM (active)
CCN1C[C@@]2(COC(=O)c3ccccc3N3C(=O)CC(C)C3=O)CC[C@H](OC)[C@]34C5C[C@H]6[C@@H](OC)C[C@@](O)(C5[C@H]6OC)C(O)(C13)[C@@H](OC)C24 (some centres not stated),AC50,Cytochrome P450 3A4 [15],20 µM (inconclusive)
COC(=O)/C(=C1\OC(=O)C(c2ccccc2)C1=O)c1ccccc1 (configuration not stated),AC50,Cytochrome P450 3A4 [15],39.8 µM (inconclusive)
CC12CCC(C(=O)Nc3ccccc3Br)(C/C1=N\O)C2(C)C (configuration not stated),AC50,Cytochrome P450 3A4 [16],20 µM (inconclusive)
same,AC50,Cytochrome P450 2C19,31.6 µM (inconclusive)
same,AC50,Cytochrome P450 2C9,inconclusive
CC1(C)C(O)CC(=O)[C@]2(C)C1CC(=O)[C@]1(C)C2CC[C@@]2(C)C(c3ccoc3)OC(=O)C3O[C@@]321 (some centres not stated),AC50,Cytochrome P450 3A4 [15],10 µM (inconclusive)
CCCn1c(C)nc2c(NCCN3CCOCC3)nc(C)nc21,AC50,Cytochrome P450 3A4 [15],20 µM (inconclusive)
C[C@H]1CN([C@@H](C)CO)C(=O)c2c(c3ccccc3n2C)-c2ccccc2CO[C@@H]1CN(C)C(=O)Nc1cccc(C(F)(F)F)c1,AC50,[17],0.442 µM (active)
same,AC50,[18],1.13 µM (active)
same,AC50,[19],0.871 µM (active)
same,AC50,[20],0.376 µM (active)
COc1ccc(NC(=O)Nc2ccc3c(c2)CC(=O)N([C@@H](C)CO)C[C@@H](C)[C@@H](CN(C)Cc2ccc(C(F)(F)F)cc2)O3)cc1,AC50,[21],4.62 µM (active)
COc1ccc(-c2cc3nc(NCC4CCCCC4)n(C)c(=O)c3s2)cc1OC,AC50,[7],> 52 µM (inactive)
same,AC50,[8],12.8 µM (active)
same,AC50,[9],45.8 µM (active)
same,AC50,[10],2.51 µM (active)
CC(C)CC#Cc1ccc2c(c1)O[C@@H](CN(C)S(=O)(=O)c1cccc(F)c1)[C@@H](C)CN([C@H](C)CO)S2(=O)=O,AC50,[1],0.919 µM (active)
same,AC50,[2],5.91 µM (active)
same,AC50,[3],26.5 µM (active)
C[C@@H]1CN([C@@H](C)CO)C(=O)Cc2cc(NS(=O)(=O)c3ccc(F)cc3)ccc2O[C@@H]1CN(C)Cc1ccc(Oc2ccccc2)cc1,AC50,[21],3.56 µM (active)
